According to patent US20250092058A1 (priority 2018, published 2025):

Columns and labels:
ERCC6, γ-H2AX = assay: Western blots of DNA damage/repair proteins in PANC1; type: cell-based, human
Method: (§1) Western blotting/Immunoblotting. […] Fifty μg total protein from each sample were heated at 95° C. for 5 minutes after mixing with equal volume of 2×SDS loading buffer. Samples were separated on 12-15% SDS-polyacrylamide gel electrophoresis (SDS-PAGE) gels and electrotransferred to Pure Nitrocellulose Membranes (Bio-Rad, Hercules, CA). The membrane was then blocked in 5% skim milk in TBS-T buffer (20 mM Tris/HCl pH 7.5, 0.137 M NaCl, and 0.1% Tween 20) at room temperature for 2-3 hours. Next, the membrane was incubated with different primary antibodies in TBS-T containing 5% BSA overnight at 4° C. in the range of dilutions from 1:500 to 1:2000. After washing with TBS-T, the membrane was incubated in TBS-T buffer containing 5% skim milk and corresponding secondary antibody (1:5000) for 45-60 minutes at room temperature with shaking. Protein of interest was detected using Western Lightning Plus—ECL (Perkin Elmer, Waltham, MA) and visualized by various times (3-120 seconds) of exposure. Actin was detected as the internal control to normalize total protein loading for each sample.

A2780CP70-GFPcODC cells = assay: GFPcODC drug-resistant cell tracking, A2780CP; type: cell-based, human; settings: 10 nM and 100 nM
Description: Generation of A2780-GFPcODC, A2780CP-GFPcODC and PANC1GFPcODC cells and fluorescence microscopy to detect stem-like and drug resistant green cells. The retroviral expression vector pQCXIN-ZsGreen-cODC (ornithine decarboxylase), containing a green fluorescence marker, was kindly provided by Dr. Frank Pajonk (Vlashi E, et al., In vivo imaging, tracking, and targeting of cancer stem cells. J Natl Cancer Inst. 2009; 101: 350-9). The retroviral particles collected from packaging cells that transfected with the above vector were infected into A2780, A2780CP and PANC1 cells, respectively. The transfected cell pool was used for experiments. The transfected cells were treated with and without cisplatin or FL118 alone or in combination for defined times. Cell images were acquired digitally using the Olympus IX73 Inverted Score s (Olympus). Percentages of living cells were obtained from the average of the total cells counted from 10 microscopic fields.
To test this, we used a novel approach developed in Dr. Pajonk's lab for the live tracking of drug resistant cells (Vlashi E, et al., In vivo imaging, tracking, and targeting of cancer stem cells. J Natl Cancer Inst. 2009; 101: 350-9). This approach takes advantage of reduced 26S proteasome activity of drug resistant cells. […]

HCT116 = type: cell-based, human; settings: Table 13; MTT; HCT116 colorectal cancer
[1] = Oral PK in SW620/HT29 tumor-bearing SCID mice; settings: 1.5 mg/kg oral, HPβCD aqueous suspension
Method: Tumor tissues and blood samples were collected at a series of time points of 30 minutes, 1 hour, 4 hours, 12 hours and 24 hours. Each tumor tissue was collected in a tube and immediately frozen with liquid nitrogen; each blood sample was collected in a Li-Heparin LH/1.3 tube ([sequence]), and plasma was recovered by centrifugation (1500 rpm×2 minutes). The collected plasma from each blood sample was transferred into a new tube and immediately frozen in liquid nitrogen. Liquid nitrogen-frozen specimens were then transferred to an −80° C. freezer for analysis.
Drug in plasma is extracted with acidified methanol. An 800 μL aliquot of ice-cold acidified methanol is added to 200 μL plasma and vortexed for 15 sec. […] An 800 μL aliquot of ice-cold acidified methanol is added to 200 μL homogenized tissue and then vortexed for 1 min. The samples are then centrifuged at 13,000 rpm for 5 min. and the supernatant is transferred to a clean 13×100 mm glass tube. Samples are dried under vacuum and stored at −20° C. until analysis. […] Analysis is carried out using an Acquity UPLC system with Fluorescence detection interfaced with Empower software. […] The fluorescence detector is set at the following Excitation (Ex) and Emissions (Em) wavelengths: Ex 370 nm Em 510 nm. […] QC samples are analyzed with each curve.

ABCG2 and Pgp = assay: Efflux transporter substrate studies; type: in vitro ADME
PANC1 and Mia2 cells = assay: Western blots of caspase-3 activation and PARP cleavage; type: cell-based, human; settings: 24 h, 10-500 nM
Method: Western blotting/Immunoblotting. […] Fifty μg total protein from each sample were heated at 95° C. for 5 minutes after mixing with equal volume of 2×SDS loading buffer. Samples were separated on 12-15% SDS-polyacrylamide gel electrophoresis (SDS-PAGE) gels and electrotransferred to Pure Nitrocellulose Membranes (Bio-Rad, Hercules, CA). […] Next, the membrane was incubated with different primary antibodies in TBS-T containing 5% BSA overnight at 4° C. in the range of dilutions from 1:500 to 1:2000. After washing with TBS-T, the membrane was incubated in TBS-T buffer containing 5% skim milk and corresponding secondary antibody (1:5000) for 45-60 minutes at room temperature with shaking. Protein of interest was detected using Western Lightning Plus—ECL (Perkin Elmer, Waltham, MA) and visualized by various times (3-120 seconds) of exposure. Actin was detected as the internal control to normalize total protein loading for each sample.
Next, we determined whether FL118-mediated inhibition of antiapoptotic proteins and induction of pro-apoptotic proteins shown in FIG. 1 would be accompanied by induction of apoptosis and cell killing.

[2] = system: survivin, Mcl-1, XIAP, cIAP2; assay: Western blots of anti-/pro-apoptotic proteins in PANC1 and Mia2; type: cell-based, human; settings: 16 h to 48 h, dose-dependent
Method: as §1

HepG2 = type: cell-based, human; settings: Table 13; MTT; HepG2 liver cancer
PANC1 cells = assay: Matrigel CSC sphere formation; type: cell-based, human; settings: 1, 10 and 100 nM, 20 days
Method: Matrigel stem cell cultural assay. […] Spheres were maintained in Improved MEM containing 20 ng/ml epidermal growth factor, 10 ng/ml basic fibroblast growth factor, […] insulin and 0.4% Bovine Serum Albumin. PANC1cells were plated at a density of 1000 cells/well in 24-well ultralow attachment plates (Sigma-Aldrich). Briefly, 1000 PANC1 cells were suspended in […] medium and mixed thoroughly with […] BD Matrigel™ (BD Bioscience, San Jose, CA, USA). […] Upon solidification, FL118 treatment was administered. Spheres in each well were set in the plate to grow for 20 days and then quantitated visually under a microscope at the magnification of 10×.
To further confirm these findings, we alternatively used the typical matrigel-based CSC sphere formation assay which is know to more closely mimic in vivo situations. In this assay only drug resistant stem-like cancer cells are able to form spheres. […] We performed colony formation of CD44 stem cell marker-positive cells using the stem-cell culture condition. […] Thus, the GFPcODC-positive cell model may be an extremely drug resistant cell model or a less actual cell mimic system after transfection of the GFPcODC-expressing vector and selection process for obtaining GFPcODC-expressing cells, which may not fully mimic the CD44 stem cell marker-positive drug resistant cells. […]

[3] = calculated from SCID mouse MTD
[4] = Stability of FL118 formulated suspension; settings: no observable change in antitumor efficacy vs freshly prepared
[5] = BALB/cj mice, FL118 MTD 10 mg/kg oral qw×4
[6] = BALB/cj mouse serum, FL118 MTD 10 mg/kg oral qw×4

SMILES: CC[C@@]1(O)C(=O)OCc2c1cc1n(c2=O)Cc2cc3cc4c(cc3nc2-1)OCO4 [FL118, 10,11-methylenedioxy-camptothecin]
- expression of ERCC6 and γ-H2AX (ERCC6, γ-H2AX): strongly decreased the expression of ERCC6 and induced γ-H2AX
- decrease of GFPcODC-positive drug-resistant cell population (A2780CP70-GFPcODC cells): more than 50%
- IC50 (HCT116): 66.5 ± 11.2 nM
- concentration in tumor versus serum [1]: many folds higher than those in serum
- substrate of ABCG2 and Pgp (ABCG2 and Pgp): not a substrate of ABCG2 and Pgp
- tolerability (10 mg/kg oral qw×4): well tolerated
- BASO [5]: 0 K/μL
- EOS [5]: 0.01-0.1 K/μL
- HCT [5]: 26.1-30.9%
- HGB [5]: 8.9 to 10.8 g/dL
- LYM [5]: 0.06-0.17 K/μL
- MCH [5]: 14.8 to 15.3 pg
- MCHC [5]: 33.7 to 36 g/dL
- MCV [5]: 41.9 to 43.9 fL
- MONO [5]: 0.03-0.12 K/μL
- MPV [5]: 8.1 to 8.6 fL
- NEUT [5]: 0.03-0.5 K/μL
- PDW [5]: 13.8 to 14.4 fL
- PLT [5]: 487-1004 K/μL
- RBC [5]: 6.01-7.04 M/μL
- RDW-SD [5]: 23 to 24.8 fL
- RET [5]: 0.67-4.49 K/μL
- WBC [5]: 0.33-0.6 K/μL
- ALB [6]: 1.7 to 2.2 g/dL
- ALP [6]: 52-105 U/L
- ALT [6]: 33-58 U/L
- BUN [6]: 16 to 19 mg/dL
- CHOL [6]: 91 to 109 mg/dL
- CREA [6]: ≤0.1 mg/dL
- Ca [6]: 8.1 to 9.4 mg/dL
- GLU [6]: 87 to 185 mg/dL
- PHOS [6]: 10 to 13.3 mg/dL
- TBIL [6]: ≤0.1 to 0.3 mg/dL
- TP [6]: 3.4 to 4.1 g/dL
- body weight loss (≥12.5 mg/kg oral qw×4): > 20%
- caspase-3 activation and PARP cleavage (PANC1 and Mia2 cells): strongly induces caspase-3 activation and PARP cleavage
- expression of antiapoptotic proteins (XIAP, cIAP2, Mcl-1 or survivin) [2]: differentially modulates the expression of antiapoptotic proteins
- IC50 (HepG2): 68.5 ± 6.7 nM
- sphere formation (PANC1 cells): high efficacy in inhibiting sphere formation
- calculated FL118 MTD for dogs [3]: 2 mg/kg
- stability of formulated suspension for oral administration [4]: more than 12 months
